In the NIST ThermoML archive (doi:10.1016/j.jct.2015.05.013):

Assay: cn = amount concentration of the nth substance listed, in mol/dm3
Conditions: 298.15 K, 101.3 kPa, Liquid, Taylor dispersion method

COC(=O)[C@@H](N)Cc1cnc[nH]1.Cl.Cl [methyl L-histidinate dihydrochloride] + O
Conditions | binary diffusion coefficient [m2/s]
c1 = 0.001 | 1.05e-09
c1 = 0.005 | 1.01e-09
c1 = 0.01 | 9.82e-10
c1 = 0.02 | 9.6e-10
c1 = 0.05 | 9.21e-10
c1 = 0.1 | 8.61e-10
